Measurements from patent US20250230193A1, “CYCLIC COMPOUND HAVING SELECTIVE KRAS INHIBITORY EFFECT ON HRAS AND NRAS” (CHUGAI SEIYAKU KABUSHIKI KAISHA, priority 2022, published 2025).

Assays:
[1] = biological target: GDP-bound HRAS wild-type protein (Homo sapiens, UniProt P01112); experiment: Binding to HRAS by surface plasmon resonance (SPR), Single Cycle Kinetics; conditions: KD ratio, GDP-bound HRAS wild-type vs GDP-bound KRAS wild-type, SPR
[2] = biological target: GDP-bound NRAS wild-type protein (Homo sapiens, UniProt P01111); experiment: Binding to NRAS by surface plasmon resonance (SPR), Single Cycle Kinetics; conditions: KD ratio, GDP-bound NRAS wild-type vs GDP-bound KRAS wild-type, SPR
GDP-bound NRAS wild-type protein, sequence (P01111 whole entry): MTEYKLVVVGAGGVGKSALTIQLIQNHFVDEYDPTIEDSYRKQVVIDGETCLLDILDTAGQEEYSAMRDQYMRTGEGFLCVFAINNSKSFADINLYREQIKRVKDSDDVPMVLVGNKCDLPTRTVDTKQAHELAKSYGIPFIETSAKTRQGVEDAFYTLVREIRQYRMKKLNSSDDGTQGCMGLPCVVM

GDP-bound HRAS wild-type protein, sequence (P01112 whole entry): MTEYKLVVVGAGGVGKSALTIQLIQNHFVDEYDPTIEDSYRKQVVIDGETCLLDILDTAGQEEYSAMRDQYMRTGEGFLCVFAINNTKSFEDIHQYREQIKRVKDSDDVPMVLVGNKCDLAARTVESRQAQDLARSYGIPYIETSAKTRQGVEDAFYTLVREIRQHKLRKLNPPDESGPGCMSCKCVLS

Row | Compound | HRAS/KRAS (ratio of KD value for HRAS to KD value for KRAS) [1] | NRAS/KRAS (ratio of KD value for NRAS to KD value for KRAS) [2]
1 | CCO[C@@H]1C[C@H]2C(=O)NC3(CC(C)(C)C3)C(=O)N(C)[C@@H](C3CCCC3)C(=O)N(C)[C@H](C(=O)N(C)CC)CC(=O)N(C)[C@@H](CC)C(=O)N[C@@H]([C@@H](C)CC)C(=O)N(C)CC(=O)N(C)[C@H]3C/C=C\CCN(C3=O)[C@@H](Cc3ccc(C(F)(F)F)cc3)C(=O)N(C)CC(=O)N[C@@H](CCc3ccc(C(F)(F)F)c(OC)c3)C(=O)N2C1 [PP1653] | A (a compound having 10 or more and less than 20 is denoted as A) | A (a compound having 10 or more and less than 20 is denoted as A)
2 | CCCN(C)C(=O)[C@@H]1CC(=O)N(C)[C@@H](CC)C(=O)N[C@@H]([C@@H](C)CC)C(=O)N(C)CC(=O)N(C)[C@H]2C/C=C\CCN(C2=O)[C@@H](Cc2ccc(C(F)(F)F)cc2)C(=O)N(C)CC(=O)N[C@@H](CCc2ccc(C(F)(F)F)c(OC)c2)C(=O)N2C[C@H](OCC)C[C@H]2C(=O)NC2(CC(C)(C)C2)C(=O)N(C)[C@@H](C2CCCC2)C(=O)N1C [PP1654] | A (a compound having 10 or more and less than 20 is denoted as A) | A (a compound having 10 or more and less than 20 is denoted as A)
3 | CCO[C@@H]1C[C@H]2C(=O)NC3(CC(C)(C)C3)C(=O)N(C)[C@@H](C3CCCC3)C(=O)N(C)[C@H](C(=O)N(C)CC)CC(=O)N(C)[C@@H](CC(F)F)C(=O)N[C@@H]([C@@H](C)CC)C(=O)N(C)CC(=O)N(C)[C@H]3C/C=C\CCN(C3=O)[C@@H](Cc3ccc(C(F)(F)F)cc3)C(=O)N(C)CC(=O)N[C@@H](CCc3ccc(C(F)(F)F)c(OC)c3)C(=O)N2C1 [PP1655] | A (a compound having 10 or more and less than 20 is denoted as A) | A (a compound having 10 or more and less than 20 is denoted as A)
4 | CCCN(C)C(=O)[C@@H]1CC(=O)N(C)[C@@H](COC)C(=O)N[C@@H]([C@@H](C)CC)C(=O)N(C)CC(=O)N(C)[C@H]2C/C=C\CCN(C2=O)[C@@H](Cc2ccc(C(F)(F)F)cc2)C(=O)N(C)CC(=O)N[C@@H](CCc2ccc(C(F)(F)F)c(OC)c2)C(=O)N2C[C@H](OCC)C[C@H]2C(=O)NC2(CC(C)(C)C2)C(=O)N(C)[C@@H](C2CCCC2)C(=O)N1C [PP1656] | A (a compound having 10 or more and less than 20 is denoted as A) | AA (a compound having 20 or more is denoted as AA)
5 | CCCOC[C@H]1C(=O)N[C@@H]([C@@H](C)CC)C(=O)N(C)CC(=O)N(C)[C@H]2C/C=C\CCN(C2=O)[C@@H](Cc2ccc(C(F)(F)F)cc2)C(=O)N(C)CC(=O)N[C@@H](CCc2ccc(C(F)(F)F)c(OC)c2)C(=O)N2C[C@H](OCC)C[C@H]2C(=O)NC2(CC(C)(C)C2)C(=O)N(C)[C@@H](C2CCCC2)C(=O)N(C)[C@H](C(=O)N(C)C)CC(=O)N1C [PP1657] | B (a compound having 3 or more and less than 10 is denoted as B) | A (a compound having 10 or more and less than 20 is denoted as A)
6 | CC[C@H](C)[C@@H]1NC(=O)[C@H](CC(F)F)N(C)C(=O)C[C@@H](C(=O)N(C)C)N(C)C(=O)[C@H](C2CCCC2)N(C)C(=O)C2(CC(C)(C)C2)NC(=O)[C@@H]2C[C@H](C)CN2C(=O)[C@H](CCc2cc(F)c(C(F)(F)F)c(F)c2)NC(=O)CN(C)C(=O)[C@H](Cc2ccc(C(F)(F)F)cc2)N2CC/C=C\C[C@@H](C2=O)N(C)C(=O)CN(C)C1=O [PP1658] | A (a compound having 10 or more and less than 20 is denoted as A) | A (a compound having 10 or more and less than 20 is denoted as A)
7 | CCCC[C@H]1C(=O)N[C@@H]([C@@H](C)CC)C(=O)N(C)CC(=O)N(C)[C@H]2C/C=C\CCN(C2=O)[C@@H](Cc2ccc(C(F)(F)F)cc2)C(=O)N(C)CC(=O)N[C@@H](CCc2cc(F)c(C(F)(F)F)c(F)c2)C(=O)N2C[C@@H](C)C[C@H]2C(=O)NC2(CC(C)(C)C2)C(=O)N(C)[C@@H](C2CCCC2)C(=O)N(C)[C@H](C(=O)N(C)C)CC(=O)N1C [PP1661] | A (a compound having 10 or more and less than 20 is denoted as A) | A (a compound having 10 or more and less than 20 is denoted as A)
8 | CC[C@H](C)[C@@H]1NC(=O)[C@H](CC(C)C)N(C)C(=O)C[C@@H](C(=O)N(C)C)N(C)C(=O)[C@H](C2CCCC2)N(C)C(=O)C2(CC(C)(C)C2)NC(=O)[C@@H]2C[C@H](C)CN2C(=O)[C@H](CCc2cc(F)c(C(F)(F)F)c(F)c2)NC(=O)CN(C)C(=O)[C@H](Cc2ccc(C(F)(F)F)cc2)N2CC/C=C\C[C@@H](C2=O)N(C)C(=O)CN(C)C1=O [PP1662] | B (a compound having 3 or more and less than 10 is denoted as B) | A (a compound having 10 or more and less than 20 is denoted as A)
9 | CCCN(C)C(=O)[C@@H]1CC(=O)N(C)[C@@H](C)C(=O)N[C@@H]([C@@H](C)CC)C(=O)N(C)CC(=O)N(C)[C@H]2C/C=C\CCN(C2=O)[C@@H](Cc2ccc(C(F)(F)F)cc2)C(=O)N(C)CC(=O)N[C@@H](CCc2cc(F)c(C(F)(F)F)c(F)c2)C(=O)N2C[C@H](F)C[C@H]2C(=O)NC2(CC(C)(C)C2)C(=O)N(C)[C@@H](C2CCCC2)C(=O)N1C [PP1663] | A (a compound having 10 or more and less than 20 is denoted as A) | AA (a compound having 20 or more is denoted as AA)
10 | CCCN(C)C(=O)[C@@H]1CC(=O)N(C)[C@@H](CC2CC2)C(=O)N[C@@H]([C@@H](C)CC)C(=O)N(C)CC(=O)N(C)[C@H]2C/C=C\CCN(C2=O)[C@@H](Cc2ccc(C(F)(F)F)cc2)C(=O)N(C)CC(=O)N[C@@H](CCc2cc(F)c(C(F)(F)F)c(F)c2)C(=O)N2C[C@H](F)C[C@H]2C(=O)NC2(CC(C)(C)C2)C(=O)N(C)[C@@H](C2CCCC2)C(=O)N1C [PP1665] | A (a compound having 10 or more and less than 20 is denoted as A) | AA (a compound having 20 or more is denoted as AA)
11 | CCCN(C)C(=O)[C@@H]1CC(=O)N(C)[C@@H](C)C(=O)N[C@@H]([C@@H](C)CC)C(=O)N(C)CC(=O)N(C)[C@H]2C/C=C\CCN(C2=O)[C@@H](Cc2ccc(C(F)(F)F)cc2)C(=O)N(C)CC(=O)N[C@@H](CCc2cc(F)c(C(F)(F)F)c(F)c2)C(=O)N2C[C@H](OCC)C[C@H]2C(=O)NC2(CCC2)C(=O)N(C)[C@@H](C2CCCC2)C(=O)N1C [PP1666] | A (a compound having 10 or more and less than 20 is denoted as A) | A (a compound having 10 or more and less than 20 is denoted as A)
12 | CCO[C@@H]1C[C@H]2C(=O)NC3(CCC3)C(=O)N(C)[C@@H](C3CCCC3)C(=O)N(C)[C@H](C(=O)N(C)CC)CC(=O)N(C)[C@@H](CC3CCC3)C(=O)N[C@@H]([C@@H](C)CC)C(=O)N(C)CC(=O)N(C)[C@H]3C/C=C\CCN(C3=O)[C@@H](Cc3ccc(C(F)(F)F)cc3)C(=O)N(C)CC(=O)N[C@@H](CCc3cc(F)c(C(F)(F)F)c(F)c3)C(=O)N2C1 [PP1667] | A (a compound having 10 or more and less than 20 is denoted as A) | A (a compound having 10 or more and less than 20 is denoted as A)
13 | CCCOC[C@H]1C(=O)N[C@@H]([C@@H](C)CC)C(=O)N(C)CC(=O)N(C)[C@H]2C/C=C\CCN(C2=O)[C@@H](Cc2ccc(C(F)(F)F)cc2)C(=O)N(C)CC(=O)N[C@@H](CCc2cc(F)c(C(F)(F)F)c(F)c2)C(=O)N2C[C@H](OCC)C[C@H]2C(=O)NC2(CCC2)C(=O)N(C)[C@@H](C2CCCC2)C(=O)N(C)[C@H](C(=O)N(C)CCC)CC(=O)N1C [PP1668] | A (a compound having 10 or more and less than 20 is denoted as A) | A (a compound having 10 or more and less than 20 is denoted as A)
14 | CCCN(C)C(=O)[C@@H]1CC(=O)N(C)[C@@H](CC)C(=O)N[C@@H]([C@@H](C)CC)C(=O)N(C)CC(=O)N(C)[C@H]2C/C=C\CCN(C2=O)[C@@H](Cc2ccc(C(F)(F)F)cc2)C(=O)N(C)CC(=O)N[C@@H](CCc2cc(F)c(C(F)(F)F)c(F)c2)C(=O)N2C[C@H](OCC)C[C@H]2C(=O)NC2(CC(C)(C)C2)C(=O)N(C)[C@@H](C2CCCC2)C(=O)N1C [PP1670] | A (a compound having 10 or more and less than 20 is denoted as A) | A (a compound having 10 or more and less than 20 is denoted as A)
15 | CCO[C@@H]1C[C@H]2C(=O)NC3(CC(C)(C)C3)C(=O)N(C)[C@@H](C3CCCC3)C(=O)N(C)[C@H](C(=O)N(C)CC)CC(=O)N(C)[C@@H](COC)C(=O)N[C@@H]([C@@H](C)CC)C(=O)N(C)CC(=O)N(C)[C@H]3C/C=C\CCN(C3=O)[C@@H](Cc3ccc(C(F)(F)F)cc3)C(=O)N(C)CC(=O)N[C@@H](CCc3cc(F)c(C(F)(F)F)c(F)c3)C(=O)N2C1 [PP1671] | A (a compound having 10 or more and less than 20 is denoted as A) | A (a compound having 10 or more and less than 20 is denoted as A)
16 | CCCN(C)C(=O)[C@@H]1CC(=O)N(C)[C@@H](COC)C(=O)N[C@@H]([C@@H](C)CC)C(=O)N(C)CC(=O)N(C)[C@H]2C/C=C\CCN(C2=O)[C@@H](Cc2ccc(C(F)(F)F)cc2)C(=O)N(C)CC(=O)N[C@@H](CCc2cc(F)c(C(F)(F)F)c(F)c2)C(=O)N2C[C@H](OCC)C[C@H]2C(=O)NC2(CC(C)(C)C2)C(=O)N(C)[C@@H](C2CCCC2)C(=O)N1C [PP1672] | A (a compound having 10 or more and less than 20 is denoted as A) | A (a compound having 10 or more and less than 20 is denoted as A)
